# “Also recorded” adds a separate entry of the source.
# Tests used:
# [1] = tested on: spinal cord injury model adult rats; assay: In vivo nerve regeneration after transection of the spinal nerve (cerebral cortex-spinal cord tract); settings: rat; 0.6 μg/day for four consecutive weeks
# Method: Male Wister rats (10-week-old) were purchased from Charles River Japan, Inc. and bred under free feeding and water uptake in a dedicated breeding room. They were used in the experiment after about one week of pre-breeding. SPF-3059-1 was prepared to 0.1 mg/ml with PBS. PBS was used as a control. The agent was filled in an osmotic pressure pump (Alzet, model 2004, dosage for four weeks, flow rate 0.25 μl/hr). A cannula filled with the sample solution etc. was connected to the pump and pre-incubated in saline overnight at room temperature.
# A rat was intrapenitrially injected with pentbarbital (50 mg/kg). Skin and muscles in dorsal thoracic spinal cord region of the anesthetized rat were incised and the T8-T12 vertebras were exposed. Laminectomy was carried out for the T11 thoracic vertebra under the microscope. A pair of ophthalmologic scissors attached to the manipulator was punctured and inserted across the median line into the depth of 1.5 mm from the duramater surface, and the cerebral cortex-spinal cord pathway was incised and separated. The vertebra opening was filled with a spongel. Cannulation was performed from the T9 vertebra which was perforated with a surgical drill to expose the duramater. The part of the duramater, to which a cannula was to be inserted, was perforated with an injection needle and the silicon tube connected with the pump was inserted therein. […]
# [2] = molecular target: T1, binding of Sema3A and Neuropilin-1 (Mus musculus, UniProt O08665); assay: Sema3A-receptor-binding experiment (Sema3A-AP to Neuropilin-1 expressing COS7 cells); settings: SPF-3059-1 0 to 10 μg/ml
# T1 construct: alkaline phosphatase was fused from the 758th amino acid to the C terminal side in said Sema3A; expressed in transfected cells; host or cells: COS7
# T1 sequence (O08665 21-758 limits assumed): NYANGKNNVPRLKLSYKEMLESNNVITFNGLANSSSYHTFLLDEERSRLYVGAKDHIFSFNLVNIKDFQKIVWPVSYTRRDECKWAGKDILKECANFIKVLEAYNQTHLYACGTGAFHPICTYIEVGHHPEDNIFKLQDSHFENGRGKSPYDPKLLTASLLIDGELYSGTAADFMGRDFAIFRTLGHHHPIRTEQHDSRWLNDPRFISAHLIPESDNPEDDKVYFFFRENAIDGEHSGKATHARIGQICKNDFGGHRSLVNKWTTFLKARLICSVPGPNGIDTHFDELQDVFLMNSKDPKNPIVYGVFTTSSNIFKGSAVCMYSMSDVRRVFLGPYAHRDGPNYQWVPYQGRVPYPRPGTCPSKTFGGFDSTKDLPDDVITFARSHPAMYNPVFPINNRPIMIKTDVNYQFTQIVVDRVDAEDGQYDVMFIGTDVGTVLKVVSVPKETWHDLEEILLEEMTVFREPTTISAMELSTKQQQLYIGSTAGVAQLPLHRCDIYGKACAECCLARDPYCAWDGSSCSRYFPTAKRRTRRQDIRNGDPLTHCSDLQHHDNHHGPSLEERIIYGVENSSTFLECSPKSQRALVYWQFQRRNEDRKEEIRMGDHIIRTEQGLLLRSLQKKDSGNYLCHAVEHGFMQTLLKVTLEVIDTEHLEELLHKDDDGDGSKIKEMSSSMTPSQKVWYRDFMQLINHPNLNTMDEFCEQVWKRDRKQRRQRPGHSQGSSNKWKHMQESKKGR
# Source text: Whether SPF-3059-1 inhibits the binding of Sema3A and Neuropilin-1, which is a component constituting Sema3A receptor complex, was examined in the receptor-binding experiment. Neuropilin-1 and plexin Al are currently known as constituting components of Sema3A receptors. However, mainly Neuropilin-1 is known to contribute to Sema3A binding. Sema3A fused with alkaline phosphatase (human-derived: heat-resistance) (Sema3A-AP) was used as a ligand in the receptor-binding experiment and the amount bound to the receptor was detected with the alkaline phosphatase activity as an index. Mouse-derived Sema3A was used. A recombinant gene was generated in which alkaline phosphatase was fused from the 758th amino acid to the C terminal side in said Sema3A. This recombinant gene was then introduced into a COS7 cell where it was expressed and secreted and Sema3A-AP was prepared.
# The receptor-binding experiment was performed as described below. The Neuropilin-1 expressing plasmid (pUCSRα-Neuropilin-1) was introduced into COS7 cells and cultivated for 24 hours. These cells express Neuropilin-1 on the cell surface. […] The alkaline phosphatase activity derived from Sema3A-AP in the cell extract (=binding amount of Sema3A-AP) was determined. […] The solution was then measured for its absorbance at 405 nm (p-nitrophenol: generated from p-nitirophenyl phosphate with alkaline phosphatase).
smiles,measurement,setting,value
CC(=O)c1c(C)c(C(=O)C2COc3cc(O)c(O)c(C(=O)O)c3C2=O)cc2c(=O)c3c(C(=O)O)c(O)c(O)cc3oc12 (centres unmarked) [SPF-3059-1],nerve-regeneration promoting action after spinal nerve incision (DBA-positive fibers),[1],has the nerve-regeneration promoting action
same,binding of Sema3A-AP to Neuropilin-1 expressing COS7 cells,[2],decrease in a concentration-dependent manner; also recorded: inhibits the binding of Sema3A-AP to Neuropilin-1 in a concentration-dependent manner

# Reference: US7317038B2, “Nerve regeneration promoters containing semaphorin inhibitor as the active ingredient” (Dainippon Sumitomo Pharma Co., Ltd., priority 2000, dated 2008)
